Test results taken from patent US12077503B2, “Substituted cyclic amides and their use as herbicides” (FMC CORPORATION, priority 2015, dated 2024).

What was measured:
Format in all cases: in vivo
[1] = tested on: ivy-leaved morning glory (Ipomoea hederacea); assay: Test G Pre-Emergence Protocol; conditions: Ipomoea, pre-emergence, 312 h, evaluated after 13 days
In short: (§1)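 Visual injury (0–100) at day 13 after a single pre-emergence spray. Rates: 15.625, 62.5, 250 g/ha in acetone–water 50:50 with 0.5% Tween 20. Growth conditions: 24/16° C, 14 h light, 65% humidity.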

corn (Zea mays) [2] = assay: Test G Pre-Emergence Protocol; conditions: Zea mays, pre-emergence, 312 h, evaluated after 13 days
In short: as §1

[3] = tested on: velvetleaf (Abutilon theophrasti); assay: Test G Pre-Emergence Protocol; conditions: Abutilon theophrasti, pre-emergence, 312 h, evaluated after 13 days
In short: as §1

[4] = tested on: barnyardgrass (Echinochloa crus-galli); assay: Test G Pre-Emergence Protocol; conditions: Echinochloa crus-galli, pre-emergence, 312 h, evaluated after 13 days
In short: as §1

[5] = tested on: redroot pigweed (Amaranthus retroflexus); assay: Test G Pre-Emergence Protocol; conditions: Amaranthus retroflexus, pre-emergence, 312 h, evaluated after 13 days
In short: as §1

[6] = tested on: giant foxtail (Setaria faberi); assay: Test G Pre-Emergence Protocol; conditions: Setaria faberi, pre-emergence, 312 h, evaluated after 13 days
In short: as §1

[7] = tested on: ivy-leaved morning glory (Ipomoea hederacea); assay: Test G Post-Emergence Protocol; conditions: Ipomoea, post-emergence, 312 h, read-out: Morningglory, Ivy-leaved damage rating
In short: (§2)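 Seedlings grown 8 days in soil in a glasshouse (24/16 °C day/night, 14 h light, 65% humidity) were sprayed post-emergence with compound in acetone/water 50:50 plus 0.5% Tween 20 at 15.625, 62.5 or 250 g/ha. Damage was scored after 13 days on a 0–100 scale (100 = total damage).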

corn (Zea mays) [8] = assay: Test G Post-Emergence Protocol; conditions: Zea mays, post-emergence, 312 h, read-out: Corn damage rating
In short: as §2

[9] = tested on: velvetleaf (Abutilon theophrasti); assay: Test G Post-Emergence Protocol; conditions: Abutilon theophrasti, post-emergence, 312 h, read-out: Velvetleaf damage rating
In short: as §2

[10] = tested on: barnyardgrass (Echinochloa crus-galli); assay: Test G Post-Emergence Protocol; conditions: Echinochloa crus-galli, post-emergence, 312 h, read-out: Barnyardgrass damage rating
In short: as §2

[11] = tested on: redroot pigweed (Amaranthus retroflexus); assay: Test G Post-Emergence Protocol; conditions: Amaranthus retroflexus, post-emergence, 312 h, read-out: Pigweed, Redroot damage rating
In short: as §2

[12] = tested on: giant foxtail (Setaria faberi); assay: Test G Post-Emergence Protocol; conditions: Setaria faberi, post-emergence, 312 h, read-out: Foxtail, Giant damage rating
In short: as §2

[13] = 15.625 g ai/ha, evaluated after 13 days (100=total damage to plant; 0=no damage to plant)
[14] = 62.5 g ai/ha, evaluated after 13 days, 100=total damage to plant, 0=no damage to plant
[15] = 250 g ai/ha, evaluated after 13 days, 100=total damage to plant, 0=no damage to plant

CN1C[C@H](c2ccc(C(F)(F)F)cc2)[C@@H](C(=O)Nc2cnccc2S(C)(=O)=O)C1=O (racemic) [Compound 1746]
20%: pest or weed control at 250 g/ha ([5]; 250 g ai/ha, read-out: Pigweed, Redroot damage rating (100=total damage to plant; 0=no damage to plant)) | pest or weed control at 62.5 g/ha ([6]; 62.5 g ai/ha, 100=total damage to plant, 0=no damage to plant, read-out: Foxtail, Giant damage rating) | pest or weed control at 62.5 g/ha [11, 14] | pest or weed control at 250 g/ha [11, 15]
50%: pest or weed control at 250 g/ha ([4]; 250 g ai/ha, read-out: Barnyardgrass damage rating (100=total damage to plant; 0=no damage to plant))
70%: pest or weed control at 250 g/ha ([6]; 250 g ai/ha, read-out: Foxtail, Giant damage rating (100=total damage to plant; 0=no damage to plant)) | pest or weed control at 250 g/ha [12, 15]
0%: pest or weed control at 15.625 g/ha ([1]; 15.625 g ai/ha, read-out: Morningglory, Ivy-leaved damage rating (100=total damage to plant; 0=no damage to plant)) | pest or weed control at 62.5 g/ha ([1]; 62.5 g ai/ha, 100=total damage to plant, 0=no damage to plant, read-out: Morningglory, Ivy-leaved damage rating) | plant injury at 15.625 g/ha (corn (Zea mays) [2]; 15.625 g ai/ha, read-out: Corn damage rating (100=total damage to plant; 0=no damage to plant)) | plant injury at 62.5 g/ha (corn (Zea mays) [2]; 62.5 g ai/ha, 100=total damage to plant, 0=no damage to plant, read-out: Corn damage rating) | plant injury at 250 g/ha (corn (Zea mays) [2]; 250 g ai/ha, read-out: Corn damage rating (100=total damage to plant; 0=no damage to plant)) | pest or weed control at 15.625 g/ha ([3]; 15.625 g ai/ha, read-out: Velvetleaf damage rating (100=total damage to plant; 0=no damage to plant)) | pest or weed control at 62.5 g/ha ([3]; 62.5 g ai/ha, 100=total damage to plant, 0=no damage to plant, read-out: Velvetleaf damage rating) | pest or weed control at 15.625 g/ha ([4]; 15.625 g ai/ha, read-out: Barnyardgrass damage rating (100=total damage to plant; 0=no damage to plant)) | pest or weed control at 62.5 g/ha ([4]; 62.5 g ai/ha, 100=total damage to plant, 0=no damage to plant, read-out: Barnyardgrass damage rating) | pest or weed control at 15.625 g/ha ([5]; 15.625 g ai/ha, read-out: Pigweed, Redroot damage rating (100=total damage to plant; 0=no damage to plant)) | pest or weed control at 62.5 g/ha ([5]; 62.5 g ai/ha, 100=total damage to plant, 0=no damage to plant, read-out: Pigweed, Redroot damage rating) | pest or weed control at 15.625 g/ha ([6]; 15.625 g ai/ha, read-out: Foxtail, Giant damage rating (100=total damage to plant; 0=no damage to plant)) | pest or weed control at 15.625 g/ha [7, 13] | plant injury at 15.625 g/ha (corn (Zea mays) [8]; [13]) | plant injury at 62.5 g/ha (corn (Zea mays) [8]; [14]) | pest or weed control at 15.625 g/ha [9, 13] | pest or weed control at 62.5 g/ha [9, 14] | pest or weed control at 15.625 g/ha [10, 13] | pest or weed control at 62.5 g/ha [10, 14] | pest or weed control at 15.625 g/ha [11, 13] | pest or weed control at 15.625 g/ha [12, 13]
40%: pest or weed control at 250 g/ha [10, 15]
60%: pest or weed control at 250 g/ha [7, 15]
10%: pest or weed control at 250 g/ha ([1]; 250 g ai/ha, read-out: Morningglory, Ivy-leaved damage rating (100=total damage to plant; 0=no damage to plant)) | pest or weed control at 250 g/ha ([3]; 250 g ai/ha, read-out: Velvetleaf damage rating (100=total damage to plant; 0=no damage to plant)) | pest or weed control at 62.5 g/ha [7, 14] | plant injury at 250 g/ha (corn (Zea mays) [8]; [15]) | pest or weed control at 250 g/ha [9, 15] | pest or weed control at 62.5 g/ha [12, 14]
